These results are taken from patent US20230219911A1, “BENZOTHIAZOLE DERIVATIVES AND USES THEREOF” (SHENYANG PHARMACEUTICAL UNIVERSITY, priority 2020, published 2023).

For assay [1], the system named is lipopolysaccharide-injected KM mice, forced swimming test. As to the kind of experiment: Measurement of antidepressant effect, lipopolysaccharide / forced swimming test. The conditions noted are these: subcutaneous injection 23 hours after lipopolysaccharide, test 1 hour later, FIG. 7. The format is in vivo. The method, then:
Male KM mice (6 to 8 weeks old) (SPF (Beijing) Biotechnology Co., Ltd.) swam in advance for 10 min, and were injected with lipopolysaccharide (0.5 mg/kg). After 23 hours, the mice were subcutaneously injected with the solutions of the compounds of Examples 12 and 40 or the blank solvent. After 1 hour, the mice were subjected to the forced swimming test for 6 min, and the immobility time (s) in later 4 minute for the mice in each group was recorded.

In assay [2] the target is T1, sEH enzyme (human recombinant) (Homo sapiens, UniProt P34913).
T1 construct: purchased Cayman Chemical
T1 sequence (P34913 1-555): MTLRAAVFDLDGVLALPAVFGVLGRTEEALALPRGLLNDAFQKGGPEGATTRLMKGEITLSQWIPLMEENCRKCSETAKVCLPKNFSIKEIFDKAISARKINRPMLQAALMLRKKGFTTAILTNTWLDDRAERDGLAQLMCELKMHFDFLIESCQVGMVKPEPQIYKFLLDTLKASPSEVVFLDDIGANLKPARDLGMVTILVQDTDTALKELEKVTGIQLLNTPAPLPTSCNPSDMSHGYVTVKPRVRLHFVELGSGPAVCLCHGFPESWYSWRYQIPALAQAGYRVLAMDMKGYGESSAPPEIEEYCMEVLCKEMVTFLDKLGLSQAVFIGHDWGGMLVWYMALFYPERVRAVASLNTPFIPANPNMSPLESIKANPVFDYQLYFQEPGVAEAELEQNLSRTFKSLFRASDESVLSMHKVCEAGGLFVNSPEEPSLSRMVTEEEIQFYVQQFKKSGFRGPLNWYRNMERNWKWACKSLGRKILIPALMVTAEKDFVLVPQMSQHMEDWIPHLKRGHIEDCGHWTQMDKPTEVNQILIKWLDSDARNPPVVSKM
Briefly: in vitro IC50 of soluble epoxide hydrolase (sEH) by fluorescence analysis. The format is biochemical. The protocol: The benzothiazole skeleton compounds according to the above formula I of the present invention were tested for the in vitro sEH enzyme activity by fluorescence analysis. […] 12 μL of sEH enzyme (human recombinant, 0.5 mg/mL, Cayman Chemical) was diluted with 588 μL of buffer (25 mM bis-Tris, pH 7.0). […] The inhibitions at different concentrations for the compound were respectively measured in accordance with the inhibition assay, to calculate IC50.

For assay [3], the system named is carrageenan-induced paw swelling in KM mice. As to the kind of experiment: Measurement of anti-inflammatory effect, carrageenan-induced paw swelling. Format: in vivo. The conditions noted are these: intraperitoneal injection 1 hour before carrageenan, FIG. 3. The method, then: 1 hour in advance, the mice were intraperitoneally injected with the solutions of the compounds of Examples 12, 18, 27, and 40 (10% PEG 400, 10% Tween 80) or the blank solvent, respectively. Taking the initial paw thickness of the mice before modeling as 100%, the changes in the paw thickness of the mice were measured.

Assay [4] relates to carrageenan inflammatory pain model SD rats. As to the kind of experiment: Measurement of analgesic effect, carrageenan inflammatory pain model, hot plate. The format is in vivo. As to conditions: intragastric suspension 15 mg/mL, 1 hour before modeling, FIG. 6. The protocol: Male SD rats (6 to 8 weeks old) (SPF (Beijing) Biotechnology Co., Ltd.) were subcutaneously injected with 50 μL of 1% λ-carrageenan saline solution at planta to prepare an inflammatory pain model (Rose T E, Morisseau C, Liu J Y, et al. 1-Aryl-3-(1-acylpiperidin-4-yl)urea inhibitors of human and murine soluble epoxide hydrolase: structure-activity relationships, pharmacokinetics, and reduction of inflammatory pain. J Med Chem, 2010, 53(19): 7067-7075). The compounds of Examples 12 and 40 were added to 0.5% sodium carboxymethylcellulose solution and ground to prepare a suspension with a concentration of 15 mg/mL. 1 hour before modeling, the rats were intragastrically administrated. The changes in the paw withdrawal time of rats were measured with a hot plate dolorimeter.

Assay [5] relates to STZ-induced retinopathy model Wistar rats. As to the kind of experiment: Improvement effect on diabetic retinopathy, STZ-induced retinopathy model. Format: in vivo. The conditions noted are these: 0.1% eye drops topically every day, after 6 months, FIG. 5. The method, then: Male Wistar rats (180 to 200 g) (Experimental Animal Center, Hebei Medical University) were intraperitoneally injected with streptozotocin STZ (60 mg/kg) to prepare a diabetic model, and were fed for 3 months to induce a retinopathy model (Miyamoto K, Khosrof S, Bursell S E, et al. Prevention of leukostasis and vascular leakage in streptozotocin-induced diabetic retinopathy via intercellular adhesion molecule-1 inhibition. Proc Natl Acad Sci USA, 1999, 96(19): 10836-10841). The compound of Example 40 was dissolved in 10% hydroxypropyl-p-cyclodextrin solution, to be prepared into eye drops with a content of 0.1% for the compound of Example 40. The rats were topically administrated in eyes every day.

The target of assay [6] is T1, sEH enzyme (human recombinant). Briefly: in vitro sEH enzyme activity by fluorescence analysis, single concentration inhibition. Format: biochemical. As to conditions: compound 0.1 μM; human recombinant sEH; PHOME substrate; 37° C. 15 min; read-out: sEH % inhibition, @ 0.1 μM. The protocol:
The benzothiazole skeleton compounds (concentration: 0.1 μM) according to the above formula I of the present invention were tested for the in vitro sEH enzyme activity by fluorescence analysis.
12 μL of sEH enzyme (human recombinant, 0.5 mg/mL, Cayman Chemical) was diluted with 588 μL of buffer (25 mM bis-Tris, pH 7.0). The fluorescent substrate was PHOME (cyano-(6-methoxy-naphthalen-2-yl)-methyl (3-phenyl-oxiranyl)-acetate) in DMSO (10 μM, Cayman Chemical). The compound to be tested was dissolved in 100% DMSO at a concentration of 4 μM. 185 μL of buffer (25 mM bis-Tris, pH 7.0), 5 μL of compound solution, and 5 μL of diluted sEH enzyme were added to the wells of a 96-well plate, and finally 5 μL of substrate solution was added to initiate the reaction. After incubating at 37° C. for 15 min, the fluorescence signal was measured with a microplate reader (excitation wavelength 330 nm, emission wavelength 465 nm).
Inhibition (%)=(F0−F1)/(F0)×100.

Broadly, the IC50 is the concentration that inhibits the measured activity by half. A word on the inhibition: it is the change of the read-out against control, counted positive when it falls. In the case of `O=C(Nc1ccc(Cl)cc1)Nc1nc2ccc(N(CCN3CCOCC3)C(=O)Nc3ccc(Cl)cc3)cc2s1` [Example 40, 1-{2-[3-(4-chlorophenyl)ureido]benzo[d]thiazol-6-yl}-1-[2-(4-morpholinyl)ethyl]-3-(4-chlorophenyl)urea], the “immobility time in forced swimming” value in assay [1] was “significantly reduce the immobility time”. In addition, the IC50 in assay [2] is 0.11 nM. Further, in assay [3], the “carrageenan-induced paw swelling (paw thickness)” value is “significantly inhibit” and the “effect on paw swelling compared with celecoxib” value is on record as “better than that of celecoxib”. Also, the “paw withdrawal time in hot plate dolorimeter” value in assay [4] is “significantly prolong the paw withdrawal time”. Also, in assay [5], the “non-proliferative diabetic retinopathy symptoms (retinal capillary free pericytes, vascular leakage)” value was “significantly alleviated”. In addition, the inhibition at 0.1 µM in assay [6] turned out to be 43%.
